Biological target: T1, BTK (Homo sapiens, UniProt Q06187)
T1 construct: purchased Thermo Fisher Scientific (Life Technologies) SelectScreen
Assay: SelectScreen Z'LYTE
Assay type: biochemical
In short: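 Percent values come from Thermo SelectScreen profiling of NU5455, combining activity and binding assays. CSF1R was run in Z'LYTE format at Km app ATP, and CAMK1 in Adapta format with ATP listed at 10.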

T1 sequence (Q06187 whole entry): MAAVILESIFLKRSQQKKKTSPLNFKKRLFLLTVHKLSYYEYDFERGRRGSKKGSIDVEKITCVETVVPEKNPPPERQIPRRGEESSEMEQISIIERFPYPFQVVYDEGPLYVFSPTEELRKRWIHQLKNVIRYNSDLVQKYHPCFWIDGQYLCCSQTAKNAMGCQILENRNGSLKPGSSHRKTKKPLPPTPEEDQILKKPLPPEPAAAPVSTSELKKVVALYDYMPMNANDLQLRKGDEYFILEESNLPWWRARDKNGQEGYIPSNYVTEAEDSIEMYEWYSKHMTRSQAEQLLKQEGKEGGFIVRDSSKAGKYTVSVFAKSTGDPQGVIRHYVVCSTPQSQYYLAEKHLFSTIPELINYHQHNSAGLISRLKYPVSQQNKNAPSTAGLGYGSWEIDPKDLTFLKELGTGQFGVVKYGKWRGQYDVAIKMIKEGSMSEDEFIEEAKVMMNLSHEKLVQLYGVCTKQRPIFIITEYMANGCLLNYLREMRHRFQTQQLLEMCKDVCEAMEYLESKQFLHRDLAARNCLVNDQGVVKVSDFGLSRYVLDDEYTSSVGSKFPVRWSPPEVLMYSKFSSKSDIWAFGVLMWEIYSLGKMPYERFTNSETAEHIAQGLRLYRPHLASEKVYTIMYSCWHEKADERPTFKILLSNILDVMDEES

CN(C(=O)CN1CCOCC1)c1ccc2sc3c(-c4cccc5c(=O)cc(N6CC7CCC(C6)O7)oc45)cccc3c2c1 [NU5455]
inhibition at 1 µM: -2%
